These results are taken from patent publication US10085998B2, “Salts of potassium ATP channel openers and uses thereof” (Essentialis, Inc., priority 2006, dated 2018).

The structures appear in SMILES notation. “Also recorded” adds a separate entry of the source. Where a name gives a salt, the structure may show the parent alone.

Data set [1] in a line: Excipient compatibility study for diazoxide choline salt. The format is physicochemical. As to conditions: excipient 100 mg + diazoxide choline salt 100 mg.
Data set [2] in a line: Form conversion and degradation under thermal stress. As to conditions: 60° C.; for Thermal stability of form: 7 days; for Form conversion and degradation under thermal stress (XRPD, DSC): closed, protected from light, 7 and 14 days. How it is done: Studies were also conducted to evaluate the likelihood for conversion and degradation under thermal stress.
Data set [3] can be described thus: Moisture sorption analysis. As to conditions: for Moisture sorption: hygroscopicity: relative humidity scan; for XRPD pattern following the moisture sorption/desorption analysis: after moisture sorption experiment; for Hysteresis upon desorption / hydrate formation: desorption scan. It is filed as physicochemical.
Protocol: Moisture Sorption Analysis was performed with a Hiden IGAsorp Moisture Sorption Instrument. Samples were first dried at 0% relative humidity at 25° C. until an equilibrium weight was reached, or for a maximum of 4 hours. Samples were then subjected to an isothermal (25° C.) scan from 10-90% relative humidity in steps of 10%. The samples were allowed to equilibrate to an asymptotic weight at each point for a maximum of 4 hours. Following absorption, a desorption scan from 85% relative humidity (at 25° C.) was run in steps of −10%, again allowing a maximum of 4 hours for the samples to equilibrate. The resulting samples after desorption were dried at 80° C. for two hours and analyzed by XRPD.
The nature of data set [4]: Slurry studies (inter-conversion of the solid form). The following applies: for Slurries: conversion of solid form: 50/50 mixtures of Forms C, D and F in ethyl acetate, acetonitrile and isopropanol, room temperature; for Slurry study: conversion of solid form: dichloromethane (CH2Cl2) and toluene, 7 and 14 days.
Protocol: Slurry experiments were performed on each form to determine propensity for conversion and to see if a unique form could be generated.
Data set [5] can be described thus: Solubility screen of diazoxide potassium salt in various solvents. The format is physicochemical. An excerpt: Solvents affording poor to fair solubility were used as antisolvents in binary/ternary crystallizations as well as slurry studies. Table 29 summarizes the results of the solubility screen.
The conditions of data set [6]: pH 2.
Protocol: (§1) Solubility concentrations were determined using area-percent calculations with HPLC calibration curves.
A short description of another data set: physchem. The following applies: thermodynamic from solid.
A short description of data set [7]: Crystallization screening for polymorphic forms (single/binary solvent, fast/slow cooling, XRPD). The format is physicochemical.
The mark [8] stands for this setting: 25° C., listed as Potassium diazoxide salt.

Protocol for physchem: as §1

With `CC1=Nc2ccc(Cl)cc2S(=O)(=O)N1` [Diazoxide Control], the “1 Month 40° C./75% RH % (w/w)” value in data set [1] (one-month storage 40° C./75% RH) is 99.0 % (w/w). Moreover, the “1 Month 50° C. % (w/w)” value in data set [1] (one-month storage 50° C.) is listed as 99.4 % (w/w).
On to `CC1=Nc2ccc(Cl)cc2S(=O)(=O)[N-]1.CC1=Nc2ccc(Cl)cc2S(=O)(=O)[N-]1.O.[K+].[K+]` [Form D], for which the “Thermal stability of form” value in data set [2] is “Stable (7 days)”. Moreover, in data set [3] (25° C.), the “Moisture sorption: hygroscopicity” value is given as “hygroscopic; also recorded: Hygroscopic -”. Besides, in data set [3], the “XRPD pattern following the moisture sorption/desorption analysis” value is “consistent with Form D”. The “Slurries: conversion of solid form” value in data set [4] is given as “conversion to Form D was observed in all solvents; also recorded: Converted to Form D”.
As for `CC1=NS(=O)(=O)c2cc(Cl)ccc2N1` [potassium salt of diazoxide], the Conc. in data set [5] (solvent Acetone, 55 ° C., 1.6 mg in 4.00 mL) was 400 µg/mL; in data set [5] (solvent CH2Cl2, 55 ° C., 1.3 mg in 5.00 mL), 260 µg/mL; in data set [5] (solvent DMF, rt, 1.6 mg in 0.25 mL), above 6400 µg/mL; in data set [5] (solvent Dioxane, 55 ° C., 1.4 mg in 5.00 mL), 280 µg/mL; in data set [5] (solvent EtOAc, 55 ° C., 1.8 mg in 5.00 mL) it was 360 µg/mL; in data set [5] (solvent EtOH, 55 ° C., 2.2 mg in 0.75 mL), 2930 µg/mL. Moreover, the Conc. was 240 µg/mL in data set [5] (solvent Heptane, 55 ° C., 1.2 mg in 5.00 mL); 2100 µg/mL in data set [5] (solvent IPA, 55 ° C., 2.1 mg in 1.00 mL); 340 µg/mL in data set [5] (solvent IPAc, 55 ° C., 1.7 mg in 5.00 mL); 300 µg/mL in data set [5] (solvent MEK, 55 ° C., 1.5 mg in 5.00 mL); 360 µg/mL in data set [5] (solvent MTBE, 55 ° C., 1.8 mg in 5.00 mL); 850 µg/mL in data set [5] (solvent MeCN, 55 ° C., 1.7 mg in 2.00 mL). The Conc. in data set [5] (solvent MeOH, 55 ° C., 1.5 mg in 0.25 mL) stood at 6000 µg/mL; in data set [5] (solvent THF, 55 ° C., 1.8 mg in 5.00 mL), 360 µg/mL; in data set [5] (solvent Toluene, 55 ° C., 1.4 mg in 5.00 mL), 280 µg/mL; in data set [5] (solvent Water, 55 ° C., 1.5 mg in 5.00 mL) it was 300 µg/mL; in data set [5] (solvent c-Hexane, 55 ° C., 1.5 mg in 5.00 mL) it was 300 µg/mL. In addition, the Soluble entry in data set [5] (solvent Acetone, 55 ° C., at 0.40 mg/mL) is recorded as “Yes”; in data set [5] (solvent CH2Cl2, 55 ° C., at […]) it was “No”; in data set [5] (solvent DMF, rt, at >6.40 mg/mL), “Yes”; in data set [5] (solvent Dioxane, 55 ° C., at […]), “No”; in data set [5] (solvent EtOAc, 55 ° C., at […]) it was “No”; in data set [5] (solvent EtOH, 55 ° C., at […]) it was “Yes”. Besides, the Soluble entry in data set [5] (solvent Heptane, 55 ° C., at 0.24 mg/mL) is recorded as “No”; in data set [5] (solvent IPA, 55 ° C., at […]), “Yes”; in data set [5] (solvent IPAc, 55 ° C., at […]), “No”; in data set [5] (solvent MEK, 55 ° C., at 0.30 mg/mL), “Partially”; in data set [5] (solvent MTBE, 55 ° C., at […]), “No”; in data set [5] (solvent MeCN, 55 ° C., at 0.85 mg/mL), “Yes”. Also, the Soluble entry is given as “Yes” in data set [5] (solvent MeOH, 55 ° C., at 6.00 mg/mL); “Partially” in data set [5] (solvent THF, 55 ° C., at […]); “No” in data set [5] (solvent Toluene, 55 ° C., at […]); “No” in data set [5] (solvent Water, 55 ° C., at 0.30 mg/mL); “No” in data set [5] (solvent c-Hexane, 55 ° C., at 0.30 mg/mL). For the same compound, in data set [2] (14 days, gradient area percent assay), the “Degradation by HPLC after thermal stress” value is “did not show any significant degradation”. Further, the “Form conversion and degradation under thermal stress (XRPD, DSC)” value (“Form conversion and degradation” below) in data set [2] is “showed unique peaks”. In addition, in data set [6], the “XRPD pattern of the solids obtained after the solubility analysis” value is on record as “changed back to the free form diazoxide material”. For the same compound, the “Hysteresis upon desorption / hydrate formation” value in data set [3] (25° C.) is “hemihydrate from 0-30% RH and a monohydrate from 35-75% RH”; in data set [3] (setting [8]), “hemi/monohydrate”. Moreover, the “Moisture sorption: hygroscopicity” value is “hygroscopic” in data set [3] (25° C.) and “deliquescent -” in data set [3] (setting [8]). The “Water absorbed at 60% RH” value in data set [3] (25° C.) was determined as 5.4 wt %. The “Water absorbed at 90% RH” value in data set [3] (25° C., 90% RH) came to 38.3 wt %. Besides, the “XRPD pattern following the moisture sorption/desorption analysis” value in data set [3] is reported as “changed to an alternate crystalline form”. For the same compound, the solubility in “physchem” (pH 2, aqueous buffer) came out at 9.9 mg/mL; in the data set “physchem” (pH 7, aqueous buffer) it was 14.4 mg/mL; in “physchem” (pH 12, aqueous buffer) it was 43 mg/mL. The Form entry in data set [7] (XRPD, single-solvent, fast-cooling, MeCN, 42.40 mg/mL, 80 ° C.) is reported as “C +”. For the same compound, the Precipitate result is “Yes” in data set [7] (binary-solvent, fast-cooling, McCN 0.6 mL (dissolved at 80° C.), anti-solvent CH2Cl2 1.0 mL); “Yes” in data set [7] (binary-solvent, fast-cooling, McCN 0.6 mL (dissolved at 80° C.), anti-solvent Dioxane 6.0 mL); “Yes” in data set [7] (binary-solvent, fast-cooling, McCN 0.6 mL (dissolved at 80° C.), anti-solvent EtOAc 6.0 mL); “Yes” in data set [7] (binary-solvent, fast-cooling, McCN 0.6 mL (dissolved at 80° C.), anti-solvent Heptane 2.0 mL); “Yes” in data set [7] (binary-solvent, fast-cooling, McCN 0.6 mL (dissolved at 80° C.), anti-solvent IPAc 3.0 mL); “Yes” in data set [7] (binary-solvent, fast-cooling, McCN 0.6 mL (dissolved at 80° C.), anti-solvent MTBE 1.0 mL). The Precipitate result in data set [7] (binary-solvent, fast-cooling, McCN 0.6 mL (dissolved at 80° C.), anti-solvent THF 6.0 mL) is recorded as “No/Evap”; in data set [7] (binary-solvent, fast-cooling, McCN 0.6 mL (dissolved at 80° C.), anti-solvent Toluene 1.0 mL), “Yes”; in data set [7] (binary-solvent, fast-cooling, McCN 0.6 mL (dissolved at 80° C.), anti-solvent c-Hexane 2.0 mL), “Yes”; in data set [7] (single-solvent, fast-cooling, Acetone, 10.35 mg/mL, 55 ° C.), “No/Evap”; in data set [7] (single-solvent, fast-cooling, EtOAc, 3.52 mg/mL, 75 ° C.), “Yes”; in data set [7] (single-solvent, fast-cooling, IPA, 75.67 mg/mL, 62 ° C.) it was “Yes”. The Precipitate entry is listed as “Yes” in data set [7] (single-solvent, fast-cooling, MeCN, 42.40 mg/mL, 80 ° C.); “Yes” in data set [7] (single-solvent, fast-cooling, Water, 13.73 mg/mL, 95 ° C.); “Yes” in data set [7] (single-solvent, fast-cooling, i-AmOH, 65.67 mg/mL, 73 ° C.); “Yes” in data set [7] (single-solvent, fast-cooling, t-AmOH, 8.76 mg/mL, 95 ° C.); “No/Evap” in data set [7] (single-solvent, slow-cooling, IPA, 71.67 mg/mL, 80 ° C.); “Yes” in data set [7] (single-solvent, slow-cooling, MeCN, 45.60 mg/mL, 80 ° C.). In addition, in data set [7] (single-solvent, slow-cooling, i-AmOH, 68.67 mg/mL, 80 ° C.), the Precipitate entry was “Yes”. Also, in data set [4] (n-heptane), the “Slurry study: conversion of solid form” value is “no propensity of inter-conversion”. For the same compound, in data set [4] (n-heptane, dichloromethane, toluene, gradient area percent assay), the “Degradation by HPLC after slurry study” value is “did not show any significant degradation”.
Take `CC1=Nc2ccc(Cl)cc2S(=O)(=O)[N-]1.C[N+](C)(C)CCO` [Form A]: the “Form conversion and degradation” value in data set [2] is on record as “Started to convert to Form”. In data set [3] (25° C.), the “Moisture sorption: hygroscopicity” value is listed as “Hygroscopic - deliquesced” and the “Water absorbed at 60% RH” value is on record as 2.4 wt %. Besides, in data set [3], the “XRPD pattern following the moisture sorption/desorption analysis” value is recorded as “consistent with Form A”. Also, the “Slurry study: conversion of solid form” value in data set [4] (n-heptane) is on record as “conversion to Form B was observed after seven days; also recorded: Converted to Form B after”.
As for `C1COCCO1.CC1=Nc2ccc(Cl)cc2S(=O)(=O)[N-]1.CC1=Nc2ccc(Cl)cc2S(=O)(=O)[N-]1.[K+].[K+]` [Form F], in data set [2], the “Thermal stability of form” value is “Stable (7 days)”. For the same compound, in data set [3] (25° C.), the “Moisture sorption: hygroscopicity” value is given as “hygroscopic”. The “XRPD pattern following the moisture sorption/desorption analysis” value in data set [3] was “consistent with Form D”. The “Slurries: conversion of solid form” value in data set [4] is listed as “conversion to Form D was observed in all solvents; also recorded: Converted to Form D”.
On to `CC1=Nc2ccc(Cl)cc2S(=O)(=O)[N-]1.[Na+]` [sodium salt of diazoxide], for which, in data set [2], the “Form conversion and degradation” value is listed as “little propensity to change form or degrade”. In addition, in data set [3] (25° C.), the “Hysteresis upon desorption / hydrate formation” value is “possible hydrate formation”, the “Moisture sorption: hygroscopicity” value is “hygroscopic” and the “Water absorbed at 60% RH” value came to 1.2 wt %. In addition, the “Moisture sorption: hygroscopicity” value in data set [3] (25° C., listed as Sodium diazoxide salt) is on record as “deliquescent -”. For the same compound, in data set [3] (25° C., 80% RH), the “Water absorbed at 80% RH” value amounted to 6.6 wt %. In addition, the “Slurry study: conversion of solid form” value in data set [4] (n-heptane) is reported as “no propensity of inter-conversion”.

As usually defined, the solubility is the dissolved amount per volume that the medium holds. A lower solubility goes with a poorly soluble substance.
